Experimental data: patent publication US5807900A, “Method for identifying compounds having increased activity for the repair of skin photodamage” (priority 1995, dated 1998)
pEC50, pIC50: −log10 of the molar value. Like-named read-outs stand apart in the source and are kept apart here.

Tests used:
human RAR-β = molecular target: T1, human RAR-β (Homo sapiens, UniProt P10826); assay: Binding assay for human RAR-β (displacement of 3H-retinoic acid); settings: 3H-retinoic acid displacement, mean of two or more experiments
T1 sequence (P10826 201-455 limits assumed): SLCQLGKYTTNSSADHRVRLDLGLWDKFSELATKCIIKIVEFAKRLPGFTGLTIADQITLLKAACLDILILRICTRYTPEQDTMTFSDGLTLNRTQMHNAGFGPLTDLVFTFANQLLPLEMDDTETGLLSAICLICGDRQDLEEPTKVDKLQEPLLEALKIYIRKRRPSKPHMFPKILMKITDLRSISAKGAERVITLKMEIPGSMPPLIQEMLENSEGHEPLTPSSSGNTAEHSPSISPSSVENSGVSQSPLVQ
Procedure: (§1) Binding Assay for Human RAR-α, RAR-β and RAR-γ
(§2) Binding assays were performed essentially as described in Apfel et al., supra. […] Extracts containing the receptors were used in a competitive binding assay which depends upon the ability of increasing concentrations of a retinoid to displace ^3 H-retinoic acid. In a typical assay, 0.2 to 0.4 picomoles of receptors were incubated in 0.2 ml of 50 mM Tris HCl, pH 7.4, 50 mM NaCl, 2 mM EDTA (binding buffer) containing 0.5% gelatin, 1% DMSO, 2-5 nM ^3 H-retinoic acid and various concentrations of unlabelled retinoids. After 3-5 hours at 22° C., 0.15 ml of chilled charcoal/dextran suspension (5% Norit A/0.5% dextran T-40 in binding buffer) were added for 15 min at 4° C. The tubes were centrifuged at 12,000 x g for 15 minutes and the supernates counted. Binding parameters were calculated from competition curves using the Ligand program.
(§3) Data are means of values obtained from two or more individual experiments, rounded off to two significant figures. […] When binding inhibition at 10,000 nM is less than 50%, >10,000 is indicated.

RAR-β = RAR-β transactivation assay (SeAP reporter, COS cells); format: cell-based, human; settings: for Transactivation % max (β): relative to all-trans-retinoic acid at same concentration (1,000 nM or 10,000 nM)
Procedure: (§4) Retinoid Receptor Transactivation Assays
(§5) Transactivation assays were performed essentially as described in Apfel et al., supra. For the RAR transcription activation test system, the secreted alkaline phosphatase gene (SeAP) is used as reporter. To have a screening system specific for the transfected receptor, chimeric receptors are used. These contain an estrogen receptor DNA binding domain and therefore recognize the estrogen response element (ERE) which no endogenous RAR's in mammalian cells will recognize.
(§6) The transactivation assay system has been adapted to 96-well plates and most steps are done by a robot. Briefly, on day 1 confluent COS cells are subcultured at an equivalent density onto 96-well plates in DMEM+10% charcoal stripped serum. On day 2 DNA is prepared for transfection by mixing the following: 10 μg vit-TK-SeAP reporter plasmid, 2 μg RAR expression plasmid, 2 μg transfection control plasmid and 30 μl Transfectam (lipopolyamine transfection reagent). Cells are washed twice with serum-free medium and DNA/transfectam mix added. After 1 hour medium is removed and replaced with growth medium containing test retinoids. On day 4 or 5 the culture supernatant is removed, heated to 65° for 5 min to inactivate nonspecific phosphatases, and diluted 1:10 with water. 20 μl samples are added to 100 μl of phosphatase substrate in buffer. After 1 hour at 37° the luminescence is measured in a 96-well luminometer.
(§7) 100 μl of β-galactosidase substrate is added to the adherent cells. Plates are incubated for 1 hour at 37° and the supernatants transferred to separate plates for quantitation of β-galactosidase activity by luminescence measurement. Transactivation results are expressed as the ratio of SeAP/β-galactosidase activity for each well to correct for well-to-well variation in transfection efficiency.
(§8) Data are means of values obtained from two or more individual experiments, rounded off to two significant figures. […] The maximum transactivation activity is determined from the plot where increasing dosage provides little or no additional activity, i.e., where the plot begins to level off. For active retinoids the highest concentration tested is 1000 nM.

human RAR-α [1] = molecular target: T2, human RAR-α (Homo sapiens, UniProt P10276); assay: Binding assay for human RAR-α (displacement of 3H-retinoic acid); settings: 3H-retinoic acid displacement, mean of two or more experiments
T2 sequence (P10276 201-462 limits assumed): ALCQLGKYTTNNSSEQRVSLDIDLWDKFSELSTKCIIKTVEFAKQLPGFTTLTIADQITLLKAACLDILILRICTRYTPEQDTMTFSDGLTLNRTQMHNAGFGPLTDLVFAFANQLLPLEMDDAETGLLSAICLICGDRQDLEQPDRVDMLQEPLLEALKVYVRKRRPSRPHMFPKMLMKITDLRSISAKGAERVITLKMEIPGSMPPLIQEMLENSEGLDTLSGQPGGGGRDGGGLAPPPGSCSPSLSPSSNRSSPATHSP

human RAR-γ [2] = assay: RAR-γ transactivation assay (SeAP reporter, COS cells); format: cell-based; settings: for Transactivation % max (γ): relative to all-trans-retinoic acid at same concentration (1,000 nM or 10,000 nM)
Procedure: as §4, §5, §6, §7, §8

human RAR-α [3] = assay: RAR-α transactivation assay (SeAP reporter, COS cells); format: cell-based; settings: for Transactivation % max (α): relative to all-trans-retinoic acid at same concentration (1,000 nM or 10,000 nM)
Procedure: as §4, §5, §6, §7, §8

human RAR-γ [4] = assay: Binding assay for human RAR-γ (displacement of 3H-retinoic acid); settings: 3H-retinoic acid displacement, mean of two or more experiments
Procedure: as §1, §2, §3

photodamaged skin = assay: Measurement of photodamage repair in the hairless mouse model; format: in vivo, Hairless mice (female, HRS/J strain); settings: for Photodamage repair activity (scale 0 to 4): UVB-irradiated, topical in acetone three times per week, three doses
Source text: The ability of a composition of the invention to induce repair of photodamaged skin may be determined by any conventional means. One conventional method of determining the ability of a topical composition to repair photodamaged skin is the hairless mouse model described by Kligman et al., supra. […] In this model, repair is defined by the appearance of a zone of normalized dermis extending from the epidermis down to the layer of compressed elastin. The extent of repair is reflected by the width of this zone. […] The average width of the repair zone is then calculated by dividing the area by the length of the histological section that was measured.
The width of the repair zone is […] an activity value of 4.
Measurement of Photodamage Repair
Hairless mice (female, HRS/J strain, Jackson Labs, 5-7 weeks old at the start of the experiments) were housed in yellow light and irradiated three times per week with a bank of 8 Westinghouse Sunlamps (FS120) placed about 20 cm above the animals. Daily doses were 0.03 J/cm^2 for two weeks, 0.06 J/cm2 for two weeks and 0.08 J/cm2 thereafter. The radiation dose is controlled by an International Light Model IL844A Phototherapy Exposure Control and a model SEE240 detector.
To effect repair of the dermal damage, the UVB irradiation was discontinued and the animals were divided into groups of approximately eight and treated three times per week with various concentrations of the retinoids dissolved in acetone. Stock solutions are made up freshly every week in subdued light at concentrations such that the dose is delivered in 100 μl volume and applied topically with a plastic pipette to an area of about 10 cm^2 on the back of the animal. All dosing was done under yellow light. A control group treated with acetone alone was included.
Two-cm strips of dorsal skin were taken longitudinally down the center of the irradiated (and treated) area. Elastin fibers were stained with Luna's aldehyde fuchsin and collagen by Van Gieson. In this model, repair is defined by the appearance of a normalized dermis extending from the epidermis down to the layer of compressed elastin. The extent of repair is reflected by the width of this zone. […] Twenty-four fields each of which, at 100X magnification, represents a section of tissue 0.57 mm long, are examined and the area calculated. The results are reported as the average area per field in mm^2. Thus the average width of the repair zone can be obtained by dividing this average area by 0.57 mm. […] All microscopic fields are included in the calculations of average area (or width). Data are analyzed by Student's t-test.
Compounds are tested at three doses and an approximate ED50 calculated.

[5] = COS cells, 50% of the compound's own maximum, set to highest concentration tested (usually 1000 nM) if no maximum reached, read-out: Transactivation ED50 (β)
[6] = RAR-γ, COS cells, 50% of the compound's own maximum, set to highest concentration tested (usually 1000 nM) if no maximum reached, read-out: Transactivation ED50 (γ)
[7] = COS cells, 50% of the compound's own maximum, set to highest concentration tested (usually 1000 nM) if no maximum reached, read-out: Transactivation ED50 (α)

SMILES	pIC50 (human RAR-β)	pEC50 (RAR-β; [5])	Transactivation % max (β) (RAR-β)	pIC50 (human RAR-α [1])	pEC50 (human RAR-γ [2]; [6])	Transactivation % max (γ) (human RAR-γ [2]; RAR-γ)	pEC50 (human RAR-α [3]; [7])	Transactivation % max (α) (human RAR-α [3])	pIC50 (human RAR-γ [4])	Photodamage repair activity (scale 0 to 4) (photodamaged skin)	pEC50 (RAR-β; read-out: Transactivation ED50 (β), COS cells, 50% of the compound's own maximum, set to highest concentration tested (usually 1000 nM) if no maximum reached)	pEC50 (human RAR-γ [2])	ED50 for photodamage repair (photodamaged skin; μg of test compound applied to 10 cm^2 of skin area, standard retinoid)	pEC50 (human RAR-α [3]; read-out: Transactivation ED50 (α), COS cells, 50% of the compound's own maximum, set to highest concentration tested (usually 1000 nM) if no maximum reached)
C/C(=C\c1ccc(S(C)(=O)=O)cc1)c1ccc2c(c1)C(C)(C)CCC2(C)C [G]	< 5.00	6.00	17%	< 5.00	6.00	36%	6.00	23%	< 5.00	3 (an ED50 of 1 μg or less (highly active))				
CCCCCOc1cc2c(cc1/C=C/C=C/C(C)=C/C(=O)O)C(C)(C)CCC2(C)C [Q]	5.03	6.82	81%	< 5.00	7.54	96%	6.00	45%	5.70	4				
CCCCCCc1cc2c(cc1/C=C/c1ccc(C(=O)O)cc1)C(C)(C)CCC2(C)C [M]	5.64	7.06	62%	5.66	7.82	36%	6.00	24%	6.68	4				
CCCCCCc1cc2c(cc1/C=C/C=C/C(C)=C/C(=O)O)C(C)(C)CCC2(C)C [N]	5.54	6.00	60%	5.82	7.19	123%	6.00	63%	6.77	4				
CCOC(=O)/C=C(C)/C=C/C=C(C)/C=C/c1c(C)cc(OC)c(C)c1C [E, etretinate, reference compound]	< 5.00	6.00	21%	< 5.00	6.00	20%	6.00	14%	< 5.00	0				
CCCCCCCOc1cc2c(cc1/C(C)=C/c1ccc(C(=O)O)cc1)C(C)(C)CCS2(=O)=O [Compound L, p-[(E)-2-[3',4'-dihydro-4',4'-dimethyl-7'-(heptyloxy)-2'H-1-benzothiopyran-6'-yl]propenyl]benzoic acid 1',1'-dioxide, reference compound]	5.33	6.00	14%	7.15	6.00	18%	6.00	14%	5.38	0				
CC1(C)CCC(C)(C)c2cc(C(=O)Nc3ccc(C(=O)O)cc3)ccc21 [J]										0				
C/C(=C\c1ccc(C(=O)O)cc1)c1ccc2c(c1)C(C)(C)CCC2(C)C [F]										1 (an ED50 of 100 μg)				
CCCCc1cc2c(cc1/C=C/c1ccc(C(=O)O)cc1)C(C)(C)CCC2(C)C [O]	5.74	7.52	88%	5.82	8.22	105%	6.89	56%	6.77	4				
CCCCCOc1cc2c(cc1/C=C/c1ccc(C(=O)O)cc1)C(C)(C)CCC2(C)C [P]	5.12	6.82	60%	< 5.00	7.54	90%	6.00	16%	6.17	4				
CC1(C)CCC(C)(C)c2cc(NC(=O)c3ccc(C(=O)O)cc3)ccc21 [K]										0				
COc1cc(C)c(/C=C/C(C)=C/C=C/C(C)=C/C(=O)O)c(C)c1C [D, acitretin, reference compound]									[…]	0				
